ChEMBL document CHEMBL4118101 (Bioorg Med Chem, 2018)
In brackets after ≈: the same amount, converted by molar mass. Activity calls are given as the source filed them. The calls are words filed in the database; no cut-off is given here.

What was measured:
Candida albicans [1] = assay: Antifungal activity against fluconazole/ITC-susceptible Candida albicans ATCC MYA-2876 measured after 48 hrs by CLSI M27-A3 protocol based method; type: functional; conditions: Candida albicans, ATCC MYA-2876, 48 h
Candida albicans [2] = assay: Antifungal activity against fluconazole/ITC-resistant Candida albicans ATCC 90819 measured after 48 hrs by CLSI M27-A3 protocol based method; type: functional; conditions: Candida albicans, ATCC 90819, 48 h; read-out: MIC
Candida albicans [3] = assay: Antifungal activity against fluconazole/ITC-susceptible Candida albicans ATCC MYA-2310 measured after 48 hrs by CLSI M27-A3 protocol based method; type: functional; conditions: Candida albicans, ATCC MYA-2310, 48 h; read-out: MIC
Nakaseomyces glabratus [4] = assay: Antifungal activity against Candida glabrata ATCC 2001 measured after 48 hrs by CLSI M27-A3 protocol based method; type: functional, CBS 138; conditions: Nakaseomyces glabratus, CBS 138, 48 h; read-out: MIC
Candida parapsilosis [5] = assay: Antifungal activity against Candida parapsilosis ATCC 22019 measured after 48 hrs by CLSI M27-A3 protocol based method; type: functional; conditions: Lodderomyces parapsilosis, ATCC 22019, 48 h
Candida albicans [6] = assay: Antifungal activity against Candida albicans ATCC 10231 measured after 48 hrs in presence of 10% FBS by CLSI M27-A3 protocol based method; type: functional; conditions: Candida albicans, ATCC 10231, 48 h
[7] = Hemolytic activity in mouse RBC at 62.5 ug/ml after 1 hr relative to control; type: ADME, cell-based, Erythrocyte; conditions: mouse red blood cells (erythrocytes), read-out: Activity
Cryptococcus neoformans [8] = assay: Antifungal activity against Cryptococcus neoformans isolate CN2 measured after 48 hrs by CLSI M27-A3 protocol based method; type: functional; conditions: Cryptococcus neoformans, isolate CN2, 48 h; read-out: MIC
Candida albicans [9] = assay: Antifungal activity against Candida albicans ATCC 10231 measured after 48 hrs by CLSI M27-A3 protocol based method; type: functional; conditions: ATCC 10231, 48 h
Candida albicans [10] = assay: Antifungal activity against Candida albicans ATCC 64124 measured after 48 hrs by CLSI M27-A3 protocol based method; type: functional; conditions: Candida albicans, ATCC 64124, 48 h; read-out: MIC
Candida albicans [11] = assay: Antifungal activity against fluconazole/ITC-resistant Candida albicans ATCC MYA-1237 measured after 48 hrs by CLSI M27-A3 protocol based method; type: functional; conditions: Candida albicans, ATCC MYA-1237, 48 h; read-out: MIC
Candida albicans [12] = assay: Antifungal activity against fluconazole/ITC-resistant Candida albicans ATCC MYA-1003 measured after 48 hrs by CLSI M27-A3 protocol based method; type: functional; conditions: Candida albicans, ATCC MYA-1003, 48 h; read-out: MIC
Pichia kudriavzevii = assay: Antifungal activity against Candida krusei ATCC 6258 measured after 48 hrs by CLSI M27-A3 protocol based method; type: functional; conditions: Pichia kudriavzevii, ATCC 6258, 48 h
Aspergillus nidulans [13] = assay: Antifungal activity against Aspergillus nidulans ATCC 38163 measured after 48 hrs by CLSI M38-A2 protocol based method; type: functional; conditions: ATCC 38163, 48 h
Aspergillus flavus = assay: Antifungal activity against Aspergillus flavus ATCC MYA-3631 measured after 48 hrs by CLSI M38-A2 protocol based method; type: functional; conditions: ATCC MYA-3631, 48 h
Aspergillus terreus = assay: Antifungal activity against Aspergillus terreus ATCC MYA-3633 measured after 48 hrs by CLSI M38-A2 protocol based method; type: functional; conditions: ATCC MYA-3633, 48 h
Nakaseomyces glabratus [14] = assay: Antifungal activity against Candida glabrata isolate CG1 measured after 48 hrs by CLSI M27-A3 protocol based method; type: functional; conditions: Nakaseomyces glabratus, 48 h; read-out: MIC
Nakaseomyces glabratus [15] = assay: Antifungal activity against Candida glabrata isolate CG2 measured after 48 hrs by CLSI M27-A3 protocol based method; type: functional; conditions: Nakaseomyces glabratus, isolate CG2, 48 h; read-out: MIC
Nakaseomyces glabratus [16] = assay: Antifungal activity against Candida glabrata isolate CG3 measured after 48 hrs by CLSI M27-A3 protocol based method; type: functional; conditions: Nakaseomyces glabratus, 48 h; read-out: MIC
Candida parapsilosis [17] = assay: Antifungal activity against Candida parapsilosis isolate CP1 measured after 48 hrs by CLSI M27-A3 protocol based method; type: functional; conditions: Lodderomyces parapsilosis, isolate CP1, 48 h
Candida parapsilosis [18] = assay: Antifungal activity against Candida parapsilosis isolate CP2 measured after 48 hrs by CLSI M27-A3 protocol based method; type: functional; conditions: Lodderomyces parapsilosis, isolate CP2, 48 h
Cryptococcus neoformans [19] = assay: Antifungal activity against Cryptococcus neoformans isolate CN1 measured after 48 hrs by CLSI M27-A3 protocol based method; type: functional; conditions: isolate CN1, 48 h
Cryptococcus neoformans [20] = assay: Antifungal activity against Cryptococcus neoformans isolate CN3 measured after 48 hrs by CLSI M27-A3 protocol based method; type: functional; conditions: Cryptococcus neoformans, isolate CN3, 48 h; read-out: MIC
Candida parapsilosis [21] = assay: Antifungal activity against Candida parapsilosis isolate CP3 measured after 48 hrs by CLSI M27-A3 protocol based method; type: functional; conditions: Lodderomyces parapsilosis, isolate CP3, 48 h
Candida parapsilosis [22] = assay: Antifungal activity against Candida parapsilosis ATCC 22019 measured after 48 hrs in presence of 10% FBS by CLSI M27-A3 protocol based method; type: functional; conditions: Lodderomyces parapsilosis, ATCC 22019, 48 h
Aspergillus nidulans [23] = assay: Antifungal activity against Aspergillus nidulans ATCC 38163 measured after 48 hrs in presence of 10% FBS by CLSI M38-A2 protocol based method; type: functional; conditions: ATCC 38163, 48 h
Candida albicans [24] = assay: Fungistatic activity against Candida albicans ATCC 10231 at 4 times MIC incubated for 24 hrs by time kill assay; type: functional, organism-based
Candida parapsilosis [25] = assay: Fungistatic activity against Candida parapsilosis ATCC 22019 up to 4 times MIC incubated for 24 hrs by time kill assay; type: functional, organism-based
[26] = Hemolytic activity in mouse RBC at 0.48 ug/ml after 1 hr relative to control; type: ADME, cell-based, Erythrocyte; conditions: mouse red blood cells (erythrocytes), read-out: Activity
[27] = Hemolytic activity in mouse RBC at […] ug/ml after 1 hr relative to control; type: ADME, cell-based, Erythrocyte; conditions: mouse red blood cells (erythrocytes), read-out: Activity
[28] = Hemolytic activity in mouse RBC at 1.95 ug/ml after 1 hr relative to control; type: ADME, cell-based, Erythrocyte; conditions: mouse red blood cells (erythrocytes), at 1.95 µg/mL, read-out: Activity
[29] = Hemolytic activity in mouse RBC at 3.9 ug/ml after 1 hr relative to control; type: ADME, cell-based, Erythrocyte; conditions: mouse red blood cells (erythrocytes), read-out: Activity
[30] = Hemolytic activity in mouse RBC at 7.8 ug/ml after 1 hr relative to control; type: ADME, cell-based, Erythrocyte; conditions: mouse red blood cells (erythrocytes), read-out: Activity
[31] = Hemolytic activity in mouse RBC at 31.3 ug/ml after 1 hr relative to control; type: ADME, cell-based, Erythrocyte; conditions: mouse red blood cells (erythrocytes), at 31.3 µg/mL, read-out: Activity
HEK293 = assay: Cytotoxicity against HEK293 cells at 7.8 ug/ml after 24 hrs by resazurin based assay; type: cell-based; conditions: human, hek293, 24 h
Candida albicans [32] = assay: Induction of membrane permeabilization in Candida albicans ATCC 10231 assessed as membrane disruption at 4 times MIC after 1 hr by propidium iodide staining based fluorescence microscopy; type: functional, organism-based

Row | SMILES | MIC (Candida albicans [1]) [µM] | MIC (Candida albicans [2]) [µM] | MIC (Candida albicans [3]) [µM] | MIC (Nakaseomyces glabratus [4]) [µM] | MIC (Candida parapsilosis [5]) [µM] | MIC (Candida albicans [6]) [µg/mL] | MIC (Cryptococcus neoformans [8]) [µM] | MIC (Candida albicans [9]) [µM] | MIC (Candida albicans [10]) [µM] | MIC (Candida albicans [11]) [µM] | MIC (Candida albicans [12]) [µM] | MIC (Pichia kudriavzevii) [µM] | MIC (Aspergillus nidulans [13]) [µM] | MIC (Aspergillus flavus) [µM] | MIC (Aspergillus terreus) [µM] | MIC (Nakaseomyces glabratus [14]) [µM] | MIC (Nakaseomyces glabratus [15]) [µM] | MIC (Nakaseomyces glabratus [16]) [µM] | MIC (Candida parapsilosis [17]) [µM] | MIC (Candida parapsilosis [18]) [µM] | other results
1 | C[C@@H]1[C@H](O)[C@@H](C)/C=C/C=C/C=C/C=C/C=C/C=C/C=C/[C@H](O[C@@H]2O[C@H](C)[C@@H](O)[C@H](N)[C@@H]2O)C[C@@H]2O[C@](O)(C[C@@H](O)C[C@@H](O)[C@H](O)CC[C@@H](O)C[C@@H](O)CC(=O)O[C@H]1C)C[C@H](O)[C@H]2C(=O)O [AMPHOTERICIN B] | 2.1 (≈ 1.94 µg/mL) | 1.1 (≈ 1.02 µg/mL) | 2.1 (≈ 1.94 µg/mL) | 2.1 (≈ 1.94 µg/mL) | 2.1 (≈ 1.94 µg/mL) | 7.8 | – | – | – | – | – | – | – | – | – | – | – | – | – | – | –
2 | CCCCCCCCCCNCC(O)(Cn1cncn1)c1ccc(F)cc1F (stereo unspecified) | 9.9 (≈ 3.91 µg/mL) | 9.9 (≈ 3.91 µg/mL) | 19.8 (≈ 7.81 µg/mL) | 1.2 to 2.5 (≈ 0.473 to 0.986 µg/mL) | 0.08 (≈ 0.0316 µg/mL) | 0.48 | 0.61 (≈ 0.241 µg/mL) | 1.2 (≈ 0.473 µg/mL) | 39.5 (≈ 15.6 µg/mL) | 19.8 (≈ 7.81 µg/mL) | 19.8 (≈ 7.81 µg/mL) | 1.2 (≈ 0.473 µg/mL) | 2.5 (≈ 0.986 µg/mL) | 19.8 (≈ 7.81 µg/mL) | 9.9 (≈ 3.91 µg/mL) | 4.9 (≈ 1.93 µg/mL) | 1.2 (≈ 0.473 µg/mL) | 9.9 (≈ 3.91 µg/mL) | 0.15 (≈ 0.0592 µg/mL) | 0.3 (≈ 0.118 µg/mL) | hemolysis at 1 h, 62.5 ug/ml [7]: 100%; MIC (Cryptococcus neoformans [19]): 0.61 µM (≈ 0.241 µg/mL); MIC (Cryptococcus neoformans [20]): 1.2 µM (≈ 0.473 µg/mL); MIC (Candida parapsilosis [21]): 0.61 µM (≈ 0.241 µg/mL); MIC (Candida parapsilosis [22]): 0.06 µg/mL; MIC (Aspergillus nidulans [23]): 1.95 µg/mL; Activity (Candida albicans [24]): Active; Activity (Candida parapsilosis [25]): Active; hemolysis at 1 h, 0.48 ug/ml [26]: 0%; hemolysis at 1 h, 0.975 ug/ml [27]: 0%; hemolysis at 1 h, 15.6 ug/ml [27]: 33%; hemolysis at 1 h, 1.95 ug/ml [28]: 2%; hemolysis at 1 h, 3.9 ug/ml [29]: 3%; hemolysis at 1 h, 7.8 ug/ml [30]: 8%; hemolysis at 1 h, 31.3 ug/ml [31]: 92%; Activity (HEK293): Non-Toxic; Activity (Candida albicans [32]): inactive
3 | CCCCCCNCC(O)(Cn1cncn1)c1ccc(F)cc1F (stereo unspecified) | 46.1 (≈ 15.6 µg/mL) | 92.3 (≈ 31.2 µg/mL) | 92.3 (≈ 31.2 µg/mL) | 23 to 46.1 (≈ 7.78 to 15.6 µg/mL) | 2.9 (≈ 0.981 µg/mL) | – | > 92.3 | 23 (≈ 7.78 µg/mL) | > 92.3 | > 92.3 | 92.3 (≈ 31.2 µg/mL) | 23 (≈ 7.78 µg/mL) | > 92.3 | > 92.3 | > 92.3 | 92.3 (≈ 31.2 µg/mL) | 23 (≈ 7.78 µg/mL) | 92.3 (≈ 31.2 µg/mL) | 2.9 (≈ 0.981 µg/mL) | 2.9 (≈ 0.981 µg/mL) | MIC (Cryptococcus neoformans [19]): 23 µM (≈ 7.78 µg/mL); MIC (Cryptococcus neoformans [20]): 92.3 µM (≈ 31.2 µg/mL); MIC (Candida parapsilosis [21]): 2.9 µM (≈ 0.981 µg/mL); Activity (Candida albicans [32]): inactive
